Data published in patent US5198552A, “Indole derivative having antiviral, interferon-inducing and immunomodulatory effects” (priority 1991, dated 1993).
“And” between values parts separate entries of the source, which are not always exact repeats. Equal values may be shown once. “Also recorded” adds a separate entry of the source. Read-outs that look alike come from different tables or passages of the source.

Legend:
stem cells = test: Inactivation of stem cells with allogenic lymphocytes (graft versus host, spleen endocolonies); format: in vivo, mice
Salmonella typhimurium = test: Mutagenic activity on Salmonella typhimurium; settings: 50 to 1000 μm per disk
interferon [1] = format: cell-based, hen; settings: 20 µg/ml
sarcoma-45 = test: Development of grafted sarcoma-45; format: in vivo, rats; settings: for Sarcoma growth: 125 mg/kg daily during 5 days, p < 0.05
Excerpt: Control animals were given only a starch solution. The dynamic development of the tumor was monitored by intravital measurements of its mass.

antibody-producing cells = test: Antibody-producing cells in the spleen of mice immunized with sheep erythrocytes; format: in vivo; parameters: immune response against the control: concentration or dose not given beside the values
[2] = Effect on thermal skin lesion; settings: in vivo
[3] = Prolonged administration to animals; format: in vivo
influenza A/B viruses [4] = format: cell-based
interferon [5] = test: Interferon induction in mouse blood serum; format: in vivo, mice
influenza A/B virus = test: Clinical trial against influenza A/B virus infection; format: in vivo, human; settings: hydrochloride monohydrate
Protocol: The clinical checking of the preparation was performed in comparison to control groups o patients which were taken a symptomatic treatment.

[6] = tested on: herpes simplex virus from antigen-type I L2 -strain; test: Preventive action in generalized mouse herpes; parameters: species or system mice; settings: in vivo
lymphocytes = format: in vivo, human
[7] = Long-term per os toxicity, rats; format: in vivo; settings: per os 100 to 125 mg/kg during 6 months
[8] = Long-term per os toxicity, dogs; format: in vivo; settings: per os 25 mg/kg over 6 months
interferon [9] = test: Interferon induction in human blood serum; format: in vivo
[10] = Allergizing effect, rabbits; format: in vivo; settings: subcutaneous injections and repeated skin applications
influenza A/B viruses [11] = test: Medicinal effect on experimental influenzal pneumonia of mice induced by influenza A/B viruses; format: in vivo; settings: hydrochloride monohydrate
[12] = Acute toxicity, single oral administration, mice; settings: mouse, in vivo
[13] = Localized irritant action in oral administration (hystological tests); format: in vivo
[14] = Long-term per os toxicity, guinea pigs; format: in vivo; settings: per os 100 to 125 mg/kg over 3 months
[15] = tested on: influenza A virus (Bethezda) 63 (H2 N2), A (Aichi) (H3 N2); test: Preventive action in mouse influenzal pneumonia; format: in vivo, mice; settings: for The decrease of lethality: P <0.01; for Lethality: absolute animal number: dead/total
Protocol: Its preventive effect was studied on a mouse influenzal pneumonia induced by infecting the animals intranasally with influenza A virus (Bethezda) 63 (H2 N2), A (Aichi) (H3 N2) and on a generalized mouse herpes, induced by intranasal infection of them with herpes simplex virus from antigen-type I L2 -strain.
A single administration of the preparation per os in the dose of 30 mg/kg 24 hours prior to infection prevents the death of 40% of animals suffering from a generalized herpetic infection.

[16] = Long-term per os toxicity, rabbits; format: in vivo; settings: per os 50 mg/kg during 2 months
peritoneal macrophages = test: Absorbing capacity of mouse peritoneal macrophages (neutral red); format: in vivo, mice; parameters: Absorbing Capacity, percent of control: concentration or dose not given beside the values
[17] = Allergizing effect, guinea pigs; format: in vivo; settings: subcutaneous injections and repeated skin applications
[18] = patients with influenza virus infection
[19] = single 100 mg and 300 mg daily per os
[20] = 31.2 mg/kg per os 24 and 6 hours before infecting
[21] = 62.5 mg/kg per os 24 and 6 hours before infecting
[22] = 125 mg/kg per os 24 and 6 hours before infecting
[23] = 1 day after single administration
[24] = 2 day after single administration

With `CCOC(=O)c1c(CSc2ccccc2)n(C)c2cc(Br)c(O)c(CN(C)C)c12.Cl.O` [preparation of the invention, ethyl 6-bromo-5-hydroxy-4-dimethylaminomethyl-1-methyl-2-phenylthiomethylindole-3-carboxylate hydrochloride monohydrate] the “The counts of spleen endocolonies (M ± m)” value (shortened to “The counts”) (stem cells; 1.25 × 10^6 lymphocytes) was 2.5 ± 0.4, the “The counts” value (stem cells; 2.5 × 10^6 lymphocytes) was 1.6 ± 0.2 and the “The counts” value (stem cells; 5.0 × 10^6 lymphocytes) was 0.3 ± 0.1. For the same compound, the “effect on yield of spleen colonies under graft versus host conditions” value (stem cells; preparation 100 mg per 1 kg orally, levamisole 5 mg per 1 kg, hydrochloride monohydrate) was “reduces both observed deviations as compared to control values if the concentration of introduced cells is not the highest; also recorded: normalizes the proliferative activity of target cells and their ability of producing a vital colony”, the mutagenic activity (Salmonella typhimurium) was “no mutagenic activity” and the “Interferon titer” value (interferon [1]; 8 hours) was 640-1280 U/ml. For the same compound, the “maximum interferon titer” value (interferon [1]; 24 hours) was 2560 U/ml, the “Interferon titer” value (interferon [1]; by 48 hours) was 320 U/ml and the Sarcoma growth (sarcoma-45; 1 month 10 days after grafting) was 21.0 ± 3.9 cm^3. The Sarcoma growth (sarcoma-45; 1 month 16 days after grafting) was 38.0 ± 7.5 cm^3, the Sarcoma growth (sarcoma-45; 1 month after grafting) was 8.2 ± 1.4 cm^3 and the Sarcoma growth (sarcoma-45; 2 months after grafting) was 39.9 ± 9.7 cm^3. The “effect on development of the tumor” value (sarcoma-45; 12 month period of observation, hydrochloride monohydrate) was “inhibition of the development of tumor was found; also recorded: inhibitory effect on the development of a massive tumor”, the “immunopotentiating effect on tumor-carrier animals” value (antibody-producing cells; 7-17 day of tumor development, single (3 days prior to immunization) or 5-times daily) was “immunopotentiating effect on tumor-carrier animals” and the “Antibody-producing cells in spleen (% of control)” value (antibody-producing cells; intact mice, a single use) was 246 ± 6.0%. For the same compound, the “Antibody-producing cells in spleen (% of control)” value (antibody-producing cells; intact mice, during 3 days, daily) was 141 ± 13%, the “Antibody-producing cells in spleen (% of control)” value (antibody-producing cells; intact mice, during 5 days, daily) was 192 ± 14.0% and the “immunostimulating effect on irradiated animals” value (antibody-producing cells; irradiated animals) was “pronounced immunostimulating effect”. For the same compound, the “immune response against the control” value (antibody-producing cells; irradiated animals, administered 3 days prior to irradiation) was 230%, the “stimulation of antibody genesis, compared with reference standards” value (antibody-producing cells; mice, intact and irradiated) was “superior over reference standards--levamisole and a double-stranded RF2 phage RNA” and the “Antibody-producing cells in spleen (% of control)” value (antibody-producing cells; totally irradiated (2 Gr.), 5 times in 3 days) was 96 ± 20.0%. The “Antibody-producing cells in spleen (% of control)” value (antibody-producing cells; totally irradiated (2 Gr.), a single use) was 230 ± 12.0%, the “Antibody-producing cells in spleen (% of control)” value (antibody-producing cells; totally irradiated (2 Gr.), during 3 days, daily) was 129 ± 19% and the “Antibody-producing cells in spleen (% of control)” value (antibody-producing cells; totally irradiated (2 Gr.), during 5 days, daily) was 181 ± 11.3%. For the same compound, the “immunopotentiating effect on totally irradiated tumor-carrier animals” value (antibody-producing cells; totally irradiated tumor-carriers) was “pronounced immunopotentiating effect”, the “Antibody-producing cells in spleen (% of control)” value (antibody-producing cells; totally irradiated tumor-carriers (2 Gr.), 5 times in 3 days) was 250 ± 21.5% and the “Antibody-producing cells in spleen (% of control)” value (antibody-producing cells; totally irradiated tumor-carriers (2 Gr.), during 3 days, daily) was 121 ± 25%. For the same compound, the “Antibody-producing cells in spleen (% of control)” value (antibody-producing cells; totally irradiated tumor-carriers (2 Gr.), during 5 days, daily) was 128 ± 28.5%, the “Antibody-producing cells in spleen (% of control)” value (antibody-producing cells; tumor-carriers, 5 times in 3 days) was 110 ± 11.0% and the “Antibody-producing cells in spleen (% of control)” value (antibody-producing cells; tumor-carriers, a single use) was 211 ± 10.0%. For the same compound, the “Antibody-producing cells in spleen (% of control)” value (antibody-producing cells; tumor-carriers, during 3 days, daily) was 99 ± 19%, the “effect on a thermal skin lesion” value [2] was “exert a thermoprotective action and reduce a thermal skin lesion” and the “alternations in parenchymatous organs” value [3] was “may cause in animals the development of non-specific degenerative alternations in parenchymatous organs”. The “inhibition of influenza A/B virus reproduction / chemotherapeutical effect” value (influenza A/B viruses [4]; hydrochloride monohydrate) was “shows a pronounced chemotherapeutical effect; also recorded: Inhibits the reproduction”, the “stage at which the virus-inhibiting effect is expressed” value (influenza A/B viruses [4]; single-stage infection, 5 μm/ml, reducing infectivity titer and suppressing plague-forming activity) was “early stages of influenza viruses reproduction in cells: adsorption, penetration and probably deproteinization” and the “interferon induction on repeated administering” value (interferon [5]; mice, repeated administering) was “a depressed reactivity state condition occurs in the animals”. For the same compound, the Interferon titer (interferon [5]; per os, 62.5 mg/kg, after 16 h) was 320-640 U/ml, the Interferon titer (interferon [5]; per os, 62.5 mg/kg, after 24 h) was 640 U/ml and the Interferon titer (interferon [5]; per os, 62.5 mg/kg, after 48 h) was 160 U/ml. For the same compound, the Interferon titer (interferon [5]; per os, 62.5 mg/kg, after 72 h) was 40 U/ml, the Interferon titer (interferon [5]; per os, 125 mg/kg, after 16 h) was 640 U/ml and the Interferon titer (interferon [5]; per os, 125 mg/kg, after 24 h) was 320-640 U/ml. The Interferon titer (interferon [5]; per os, 125 mg/kg, after 48 h) was 640 U/ml, the Interferon titer (interferon [5]; per os, 125 mg/kg, after 72 h) was 160 U/ml and the Interferon titer (interferon [5]; per os, 250 mg/kg, after 16 h) was 320-540 U/ml. For the same compound, the Interferon titer (interferon [5]; per os, 250 mg/kg, after 24 h) was 640-1280 U/ml, the Interferon titer (interferon [5]; per os, 250 mg/kg, after 48 h) was 320 U/ml and the Interferon titer (interferon [5]; per os, 250 mg/kg, after 72 h) was 160 U/ml. For the same compound, the “high interferon titers in mouse blood serum” value (interferon [5]; per os, 250 to 62.5 mg/kg, 16 hours, persisted up to 48 hours) was 640 U/ml, the “therapeutical efficacy against influenza A/B virus infection” value (influenza A/B virus; human, in vivo, po) was “has the therapeutical effect on influenza A/B virus infections; also recorded: shortening the febrile period, intoxication and catarrhal conditions as well as by shortening the illness duration” and the “frequency of chronic disease exacerbations” value (influenza A/B virus; [18]) was “considerably decreases the frequency of chronic disease exacerbations; also recorded: decreased considerably the frequency of chronic disease exacerbations”. For the same compound, the postinfluenzal complications (influenza A/B virus; [18]) was “prevents from post-influenzal complications; also recorded: prevented the development of postinfluenzal complications”, the “prevention of death” value [6] was 40% and the Lethality ([6]; hydrochloride monohydrate) was 60% and 75%. For the same compound, the “Lethality: absolute animal number” value ([6]; hydrochloride monohydrate) was 12/20 and 15/20, the “The decrease of lethality” value ([6]; hydrochloride monohydrate) was 40% and 25% and the “bonding receptors with the outer lymphocyte membrane” value (lymphocytes; [19]) was “leads to changes in bonding receptors with the outer lymphocyte membrane”. For the same compound, the “counts of T-populations” value (lymphocytes; [19]) was “fails to change the counts of T-populations”, the “persistence of changes in bonding receptors” value (lymphocytes; time of observation) was 14 days and the “effect of vaccination on the nature of changes of bonding receptors” value (lymphocytes; vaccination 24 hours after administering) was “no effect on the nature of changes of bonding receptors”. The pathological changes [7] was “did not cause any pathological changes”, the pathological changes [8] was “did not cause any pathological changes” and the “volunteers with interferon induction” value (interferon [9]; 3-times administration (300 mg), all 12) was 100%. The Interferon titer (interferon [9]; 3 times per day (300 mg)) was 160-320 U/ml, the “The number of positive reactions” value (interferon [9]; 3 times per day (300 mg), 12 men) was 12 and the “The number of positive reactions” value (interferon [9]; 6 times per day during 2 days (600 mg), 12 men) was 12. The Interferon titer (interferon [9]; during 2 days (600 mg)) was 40-80 U/ml, the “development of hyporeactivity on increase in dose and duration” value (interferon [9]; increase in dose and duration of administration) was “development of hyporeactivity in human beings” and the Interferon titer (interferon [9]; single administration (100 mg)) was 40-80 U/ml. The “The number of positive reactions” value (interferon [9]; single administration per day (100 mg), 13 men) was 8, the “volunteers with interferon induction” value (interferon [9]; single per os 100 mg, 8 out of 13) was 61.5% and the allergizing action [10] was “did not exert an allergizing action”. The “medicinal (chemotherapeutical) effect on influenzal pneumonia” value (influenza A/B viruses [11]) was “shows a pronounced chemotherapeutical effect; also recorded: Exerts a medicinal effect”, the LD50 [12] was 340 mg/kg and the localized irritant action [13] was “no localized irritant action”. The pathological changes [14] was “did not cause any pathological changes”, the Lethality [15, 20] was 30% and the “The decrease of lethality” value [15, 20] was 40%. For the same compound, the “Lethality: absolute animal number” value [15, 20] was 12/40, the “lowering of lethality as compared to control” value ([15]; 31.2 mg/kg to 125 mg/kg per os 24 and 6 hours before infecting) was 40-50% and the Lethality [15, 21] was 20%. For the same compound, the “The decrease of lethality” value [15, 21] was 50%, the “Lethality: absolute animal number” value [15, 21] was 8/40 and the Lethality [15, 22] was 20%. For the same compound, the “The decrease of lethality” value [15, 22] was 50%, the “Lethality: absolute animal number” value [15, 22] was 8/40 and the pathological changes [16] was “did not cause any pathological changes”. The “Absorbing Capacity of Peritoneal Macrophages” value (peritoneal macrophages; [23]) was 27.7 ± 3.5 mg/6 × 10^6 cells, the “Absorbing Capacity, percent of control” value (peritoneal macrophages; [23]) was 125 ± 17% and the “Absorbing Capacity of Peritoneal Macrophages” value (peritoneal macrophages; [24]) was 33.6 ± 4.7 mg/6 × 10^6 cells. For the same compound, the “Absorbing Capacity, percent of control” value (peritoneal macrophages; [24]) was 147 ± 20.6%, the “Absorbing Capacity of Peritoneal Macrophages” value (peritoneal macrophages; 3 day after single administration) was 37.4 ± 3.7 mg/6 × 10^6 cells and the “absorbing capacity of macrophages” value (peritoneal macrophages; by 2-3 days after a single administration, p<0.05) was 164±13%. The “stimulation of absorbing capacity of macrophages” value (peritoneal macrophages; in vivo) was “stimulates the absorbing capacity of macrophages to a greater extent than administration of levamisole”, the “effect on counts of macrophages washed off the peritoneal cavity” value (peritoneal macrophages; mouse, in vivo) was “no effect on counts of macrophages” and the allergizing action [17] was “did not exert an allergizing action”.
